One data set concerns Aspergillus niger. Description: minimum inhibitory concentration against Aspergillus niger. It is filed as cell-based. The conditions noted are these: microorganism 3, Aspergillus niger. The text has this: (§1) These properties appear to be associated with the octahydronaphthalene structure of the compounds. Thus when the anhydride VIII (Z=O) was converted to the corresponding N-[(trichloromethyl)thio]-imide (VIII, Z=N--S--CCl3) the surprising observation was made that the cyclized compound IC has about five times the fungicidal activity, and against staphylococcus aureus about 100 times the activity, of the uncyclized compound VIII (Z=N--S--CCl3) and that the latter compound had only one-fifth the solubility of compound IC. The solubility data and minimum inhibitory concentration against several microorganisms for these two compounds as well as the known fungicide Captan are presented in the following table.

Another data set has as its system Penicillium glaucum. The data set can be described thus: minimum inhibitory concentration against Penicillium glaucum. The conditions noted are these: microorganism 2, Penicillium glaucum. It is filed as cell-based.
Text: as §1

In data set [1] the test system is fungus. The data set can be described thus: fungicidal activity (general). The note with it: for fungicidal activity: in words. The text has this:
(§2) In order to find a fungicide with high solubility in petroleum hydrocarbons, numerous N-trichloromethylthio compounds have been synthesized and tested for activity and solubility. […] Rather, activity is associated with certain structural features.

Another data set relates to Sclerophoma pityophila. The data set can be described thus: minimum inhibitory concentration against Sclerophoma pityophila. The class given is cell-based. The conditions noted are these: microorganism 4, Sclerophoma pityophila.
Text: as §1

The format of data set [2] is physicochemical. The conditions noted are these: in words.
Text: as §2

Another data set has as its system Staphylococcus aureus. Description: minimum inhibitory concentration against Staphylococcus aureus. The class given is cell-based. The conditions noted are these: for Minimum Inhibitory Concentration (%): microorganism 1, Staphylococcus aureus.
Text: as §1

The subject of a further data set is Saccharomyces cerevisiac. The data set can be described thus: minimum inhibitory concentration against Saccharomyces cerevisiac. The class given is cell-based. The conditions noted are these: microorganism 6, Saccharomyces cerevisiac.
Text: as §1

Another data set has as its system Pullularia pullulans. The data set can be described thus: minimum inhibitory concentration against Pullularia pullulans. The conditions noted are these: microorganism 5, Pullularia pullulans. It is filed as cell-based.
Text: as §1

For the next data set, the system named is Candida albicans. Description: minimum inhibitory concentration against Candida albicans. It is filed as cell-based. The conditions noted are these: microorganism 7, Candida albicans.
Text: as §1

For another data set, the system named is blue discoloration. The conditions noted are these: E. Hoffman and A. Saracz; cited from earlier work.
The conditions of data set [3]: cited from earlier work.
A short description of data set [4]: solubility in mineral spirits. It is filed as physicochemical. The conditions noted are these: VIII (Z=N--S--CCl3) vs IC.
Text: as §1

In data set [5] the test system is fungus. The conditions noted are these: cited from earlier work; for properties as fungicidal additives to paints: Fette, Seifen, Anstrichmittel 1966.
The conditions of data set [6]: B. A. Richardson; cited from earlier work.

`CC1(C)CCCC2=C1CC1C(=O)N(SC(Cl)(Cl)Cl)C(=O)C1C2` (centres unmarked) [IC, 1,2,3,4,5,6,7,8-octahydro-5,5-dimethyl-N-[(trichloromethyl)thio]-2,3-naphthalenedicarboximide]: the “Minimum Inhibitory Concentration (%)” value in the data set with Aspergillus niger is 0.01%; in the data set with Penicillium glaucum, 0.001%; in the data set with Sclerophoma pityophila, 0.001%; with Staphylococcus aureus, 0.01%; with Saccharomyces cerevisiac, 0.001%; in the data set with Pullularia pullulans, 0.001%. Moreover, the “Minimum Inhibitory Concentration (%)” value in the data set with Candida albicans amounted to 0.001%. Moreover, in the data set on fungus [1] (IC vs VIII), the “fungicidal activity relative to uncyclized compound VIII (Z=N--S--CCl3)” value was “about five”. For the same compound, in the data set with fungus [1], the fungicidal activity result was “excellent fungicidal activity”. Further, the “solubility in petroleum hydrocarbons” value in data set [2] was “good solubility in petroleum hydrocarbons”. Moreover, the “activity against staphylococcus aureus relative to uncyclized compound VIII (Z=N--S--CCl3)” value in the data set on Staphylococcus aureus (IC vs VIII) is on record as “about 100 times”.

As to `O=C1c2ccccc2C(=O)N1SC(Cl)(Cl)Cl` [III], the “sufficiency of 1% to prevent blue discoloration” value in the data set with blue discoloration is “insufficient to prevent blue discoloration”.

On to `O=C1C2C3c4ccccc4C(c4ccccc43)C2C(=O)N1SC(Cl)(Cl)Cl` (centres unmarked), for which, in the data set with fungus [1], the fungicidal activity entry is “inactive”.

`CC12CCC(C(=O)N(SC(Cl)(Cl)Cl)C1=O)C2(C)C` (centres unmarked): the fungicidal activity result with fungus [1] was “inactive”.

For `O=C1C2CCCCC2C(=O)N1SC(Cl)(Cl)Cl` (centres unmarked) [IV], the “solubility in petroleum ether” value in [3] was 0.3%.

On to `CC1(C)C2CC3C(=CCC4C(=O)N(SC(Cl)(Cl)Cl)C(=O)C43)C1C2` (centres unmarked) [IB, 1,2,3,4,4a,5,6,7-octahydro-2,2-dimethyl-N-[(trichloromethyl)thio]-1,3-methanonaphthalene-5,6-dicarboximide], for which the fungicidal activity entry in the data set on fungus [1] is listed as “excellent fungicidal activity”. In addition, the “solubility in petroleum hydrocarbons” value in data set [2] is “good solubility in petroleum hydrocarbons”.

Turning to `CC(C)=CCCC1=CCC2C(=O)N(SC(Cl)(Cl)Cl)C(=O)C2C1` (centres unmarked) [VIII], the “Minimum Inhibitory Concentration (%)” value in the data set on Aspergillus niger is given as 0.01%; with Penicillium glaucum it was 0.005%; in the data set on Sclerophoma pityophila, 0.005%; in the data set on Staphylococcus aureus, 1%; in the data set on Saccharomyces cerevisiac it was 0.005%; in the data set with Pullularia pullulans, 0.005%. In addition, the “Minimum Inhibitory Concentration (%)” value in the data set with Candida albicans is on record as 0.01%. In data set [4], the “solubility relative to compound IC” value was “one-fifth”.

As for `O=C1Cc2ccccc2C(=O)N1SC(Cl)(Cl)Cl`, the fungicidal activity entry in the data set on fungus [1] is “inactive”.

Regarding `CC1=C2CCC(C)CC2C2C(=O)N(SC(Cl)(Cl)Cl)C(=O)C2C1` (centres unmarked) [IA, 1,2,3,5,6,7,8,8a-octahydro-4,7-dimethyl-N-[(trichloromethyl)-thio]-1,2-naphthalenedicarboximide], the fungicidal activity entry in the data set with fungus [1] is “excellent fungicidal activity”. Besides, the “solubility in petroleum hydrocarbons” value in data set [2] is listed as “good solubility in petroleum hydrocarbons”.

Take `CCCCCCCCCCCCCCCCC1CC(=O)N(SC(Cl)(Cl)Cl)C1=O` (centres unmarked): in the data set on fungus [1], the fungicidal activity result was “inactive”.

As to `O=C1c2ccccc2C(=O)N1SC(F)(Cl)Cl` [V], the “properties as fungicidal additives to paints” value in the data set with fungus [5] is recorded as “useful properties”.

On to `O=C1C2CC=CCC2C(=O)N1SC(Cl)(Cl)Cl` (centres unmarked) [Captan], for which the “Minimum Inhibitory Concentration (%)” value stood at 0.05% in the data set on Aspergillus niger; 0.01% in the data set with Penicillium glaucum; 0.05% with Staphylococcus aureus; 0.005% in the data set with Pullularia pullulans; 0.01% in the data set with Candida albicans. Moreover, the “fungicidal effectiveness in paints” value in the data set on fungus [5] (owing to its low solubility in paints, B. A. Richardson) is given as “practically ineffective”. Moreover, in [6], the solubility in paints entry is on record as “low solubility”.

For `CN(C)S(=O)(=O)N(SC(F)(Cl)Cl)c1ccccc1` [VI], the “properties as fungicidal additives to paints” value in the data set on fungus [5] is recorded as “useful properties”.

The values above are taken from patent publication US4087540A, “Octahydro-N-[(trichloromethyl)thio]-naphthalenedicarboximides” (Sterling Drug Inc., priority 1977, dated 1978).
